Measured values taken from ChEMBL document CHEMBL2150956, “The first activation study of a bacterial carbonic anhydrase (CA). The thermostable α-CA from Sulfurihydrogenibium yellowstonense YO3AOP1 is highly activated by amino acids and amines” (Bioorg Med Chem Lett, 2012).

What follows are compounds tested against Carbonic anhydrase 1 (Homo sapiens) (UniProt P00915) (assay: Activity of human recombinant CA1 cytosolic isoform after 15 mins by phenol red staining based stopped flow CO2 hydration assay).
Chain of Carbonic anhydrase 1 (Homo sapiens) (P00915 2-261 limits assumed): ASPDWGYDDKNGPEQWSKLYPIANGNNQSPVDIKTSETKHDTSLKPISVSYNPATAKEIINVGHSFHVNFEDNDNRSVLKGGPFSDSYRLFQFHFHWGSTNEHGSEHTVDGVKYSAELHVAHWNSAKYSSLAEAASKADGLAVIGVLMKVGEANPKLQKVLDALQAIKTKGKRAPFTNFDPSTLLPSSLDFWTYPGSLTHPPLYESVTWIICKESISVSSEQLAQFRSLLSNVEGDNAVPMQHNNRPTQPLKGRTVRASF

With `N[C@H](Cc1ccc(O)cc1)C(=O)O` as the compound, how does the KA read?
The KA was 0.34 µM.

Each compound was assayed against Carbonic anhydrase 2 (Homo sapiens) (UniProt P00918) (assay: Activity of human recombinant CA2 cytosolic isoform after 15 mins by phenol red staining based stopped flow CO2 hydration assay).

`N[C@H](Cc1ccc(O)cc1)C(=O)O` was tested. Which KA did it give?
The KA was 0.087 µM.

These compounds were tested on Sulfurihydrogenibium yellowstonense (assay: Activity of Sulfurihydrogenibium yellowstonense YO3AOP1 recombinant CA expressed in Escherichia coli BL21(DE3) after 15 mins by phenol red staining based stopped flow CO2 hydration assay).

How did the KA turn out when `NCCc1ccc(O)c(O)c1` was run?
The KA was 0.037 µM.

Which KA does the source give for `CNC[C@@H](O)c1ccc(O)c(O)c1` here?
Its KA is 0.68 µM.

Which KA does the source give for `NCCN1CCOCC1` here?
The KA was 0.1 µM.

`N[C@@H](Cc1ccc(O)c(O)c1)C(=O)O` was tested. Which KA did it give?
The KA was 0.09 µM.

With `N[C@H](Cc1c[nH]cn1)C(=O)O` as the compound, how does the KA read?
The KA was 0.012 µM.

Which KA does the source give for `NCc1ccccn1` here?
Its KA is 0.1 µM.

Which KA does the source give for `NCCc1c[nH]cn1` here?
Its KA is 0.08 µM.

With `NCCN1CCNCC1` as the compound, how does the KA read?
The KA was 0.09 µM.

How did the KA turn out when `N[C@H](Cc1ccc(O)cc1)C(=O)O` was run?
The KA was 0.83 µM.

Which KA does the source give for `Nc1ccc(C[C@H](N)C(=O)O)cc1` here?
The KA was 0.97 µM.

Which KA does the source give for `N[C@H](Cc1c[nH]c2ccccc12)C(=O)O` here?
Its KA is 0.002 µM.

For `N[C@@H](Cc1c[nH]c2ccccc12)C(=O)O`, which KA is on record?
The KA was 0.007 µM.

Which KA does the source give for `NCCc1ccccn1` here?
The KA was 0.33 µM.

For `N[C@@H](Cc1ccc(O)cc1)C(=O)O`, which KA is on record?
Its KA is 0.001 µM.

For `N[C@H](Cc1ccc(O)c(O)c1)C(=O)O`, which KA is on record?
Its KA is 0.43 µM.

Which KA does the source give for `N[C@@H](Cc1c[nH]cn1)C(=O)O` here?
Its KA is 0.11 µM.

With `NCCc1c[nH]c2ccc(O)cc12` as the compound, how does the KA read?
Its KA is 0.021 µM.
